Laboratory results published in patent USRE39591E1, “6-O-substituted ketolides having antibacterial activity” (Abbott Laboratories, priority 1996, dated 2007).
In brackets after ≈: the same amount, converted by molar mass.

Test system: up to 32 different microorganisms
Assay: in vitro antibacterial activity (MIC), agar dilution on Brain Heart Infusion (BHI) agar with Steers replicator
Type: cell-based
Conditions: unit assumed
Outline: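 Agar dilution MIC: twelve successive compound dilutions in BHI agar, spot-inoculated with 1:100 (1:10 for slow growers) organism dilutions by Steers replicator, incubated 35-37° C for 20-24 h. MIC is lowest concentration showing no growth, slight haze or sparse colonies versus drug-free control; erythromycin A as class reference.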

## CC[C@H]1OC(=O)[C@H](C)C(=O)[C@H](C)[C@@H](O[C@@H]2O[C@H](C)C[C@H](N(C)C)[C@H]2O)[C@@](C)(OCCNCCCc2ccccc2)C[C@@H](C)C(=O)[C@H](C)[C@H]2NC(=O)O[C@@]21C [Example 223, Compound of Formula (IX): L is CO, T is NH, R is —CH2CH2NHCH2CH2CH2Phenyl]
Organism code AA
  MIC: 0.2 µg/mL
Organism code BB
  MIC: 0.1 µg/mL
Organism code CC
  MIC: > 100 µg/mL
Organism code DD
  MIC: 0.2 µg/mL
Organism code EE
  MIC: 0.2 µg/mL
Organism code FF
  MIC: 0.2 µg/mL
Organism code GG
  MIC: > 100 µg/mL
Organism code HH
  MIC: 0.39 µg/mL
Organism code II
  MIC: 0.05 µg/mL
Organism code JJ
  MIC: ≤ 0.005 µg/mL
Organism code KK
  MIC: ≤ 0.005 µg/mL
Organism code LL
  MIC: ≤ 0.005 µg/mL
Organism code MM
  MIC: > 100 µg/mL
Organism code NN
  MIC: 0.1 µg/mL
Organism code OO
  MIC: 0.05 µg/mL
Organism code PP
  MIC: 0.2 µg/mL
Organism code QQ
  MIC: 50 µg/mL
Organism code RR
  MIC: 0.2 µg/mL
Organism code SS
  MIC: 100 µg/mL
Organism code TT
  MIC: > 100 µg/mL
Organism code UU
  MIC: 3.1 µg/mL
Organism code VV
  MIC: 0.2 µg/mL
Organism code WW
  MIC: 4 µg/mL
Organism code XX
  MIC: 0.03 µg/mL
Organism code YY
  MIC: 0.03 µg/mL
Organism code ZZ
  MIC: > 128 µg/mL
Organism code ZZA
  MIC: 0.5 µg/mL

## CCC1OC(=O)C(C)C(=O)C(C)C(OC2OC(C)CC(N(C)C)C2O)C(C)(OCC=Cc2ccc3cc(OC)ccc3c2)CC(C)C(=O)C(C)C2NC(=O)OC12C (stereo not drawn) [Example 283, Compound of Formula (IX): L is CO, T is NH2, R is —CH2CH═CH-(6-methoxy-2-naphthyl)]
Organism code AA
  MIC: 0.1 µg/mL
Organism code BB
  MIC: 0.1 µg/mL
Organism code CC
  MIC: 100 µg/mL
Organism code DD
  MIC: 0.1 µg/mL
Organism code EE
  MIC: 0.1 µg/mL
Organism code FF
  MIC: 0.1 µg/mL
Organism code GG
  MIC: 50 µg/mL
Organism code HH
  MIC: 0.2 µg/mL
Organism code II
  MIC: 0.05 µg/mL
Organism code JJ
  MIC: 0.01 µg/mL
Organism code KK
  MIC: 0.02 µg/mL
Organism code LL
  MIC: ≤ 0.005 µg/mL
Organism code MM
  MIC: 3.1 µg/mL
Organism code NN
  MIC: 0.2 µg/mL
Organism code OO
  MIC: 0.01 µg/mL
Organism code PP
  MIC: 0.2 µg/mL
Organism code QQ
  MIC: > 100 µg/mL
Organism code RR
  MIC: 0.78 µg/mL
Organism code SS
  MIC: > 100 µg/mL
Organism code TT
  MIC: > 100 µg/mL
Organism code UU
  MIC: 0.39 µg/mL
Organism code VV
  MIC: 0.2 µg/mL
Organism code WW
  MIC: 2 µg/mL
Organism code XX
  MIC: ≤ 0.004 µg/mL
Organism code YY
  MIC: ≤ 0.004 µg/mL
Organism code ZZ
  MIC: 4 µg/mL
Organism code ZZA
  MIC: 0.125 µg/mL

## CCC1OC(=O)C(C)C(=O)C(C)C(OC2OC(C)CC(N(C)C)C2O)C(C)(OCC=Cc2cnc3ccc(C(=O)OC)cc3c2)CC(C)C(=O)C(C)C2NC(=O)OC12C (stereo not drawn) [Example 216, R is —CH2CH═CH-(6-methoxycarbonyl-3-quinolyl)]
Organism code AA
  MIC: 0.2 µg/mL (≈ 0.243 µM)
Organism code BB
  MIC: 0.2 µg/mL (≈ 0.243 µM)
Organism code CC
  MIC: > 100 µg/mL
Organism code DD
  MIC: 0.2 µg/mL (≈ 0.243 µM)
Organism code EE
  MIC: 0.2 µg/mL (≈ 0.243 µM)
Organism code FF
  MIC: 0.2 µg/mL (≈ 0.243 µM)
Organism code GG
  MIC: > 100 µg/mL
Organism code HH
  MIC: 0.2 µg/mL (≈ 0.243 µM)
Organism code II
  MIC: 0.05 µg/mL (≈ 0.0607 µM)
Organism code JJ
  MIC: 0.01 µg/mL (≈ 0.0121 µM)
Organism code KK
  MIC: 0.02 µg/mL (≈ 0.0243 µM)
Organism code LL
  MIC: 0.02 µg/mL (≈ 0.0243 µM)
Organism code MM
  MIC: 0.78 µg/mL (≈ 0.947 µM)
Organism code NN
  MIC: 0.2 µg/mL (≈ 0.243 µM)
Organism code OO
  MIC: 0.05 µg/mL (≈ 0.0607 µM)
Organism code PP
  MIC: 0.1 µg/mL (≈ 0.121 µM)
Organism code QQ
  MIC: 100 µg/mL (≈ 121 µM)
Organism code RR
  MIC: 0.39 µg/mL (≈ 0.473 µM)
Organism code SS
  MIC: > 100 µg/mL
Organism code TT
  MIC: > 100 µg/mL
Organism code UU
  MIC: 0.78 µg/mL (≈ 0.947 µM)
Organism code VV
  MIC: 0.1 µg/mL (≈ 0.121 µM)
Organism code WW
  MIC: 2 µg/mL (≈ 2.43 µM)
Organism code XX
  MIC: 0.015 µg/mL (≈ 0.0182 µM)
Organism code YY
  MIC: 0.015 µg/mL (≈ 0.0182 µM)
Organism code ZZ
  MIC: 0.5 µg/mL (≈ 0.607 µM)
Organism code ZZA
  MIC: 0.25 µg/mL (≈ 0.303 µM)

## C=CCO[C@@]1(C)C[C@@H](C)C(=O)[C@H](C)[C@H]2NC(=O)O[C@]2(C)[C@@H](CC)OC(=O)[C@H](C)C(=O)[C@H](C)[C@H]1O[C@@H]1O[C@H](C)C[C@H](N(C)C)[C@H]1O [Example 102, Formula (IX): L is CO, T is NH, R is —CH2CH═CH2]
Candida albicans CCH 442 (code TT)
  MIC: > 100 µg/mL
Enterococcus faecism ATCC 8043 (code II)
  MIC: 0.78 µg/mL
Escherichia coli DC-2 (code SS)
  MIC: > 100 µg/mL
Escherichia coli JUHL (code QQ)
  MIC: > 100 µg/mL
Escherichia coli SS (code RR)
  MIC: 1.56 µg/mL
Haemophilis influenzae DILL AMP R (code WW)
  MIC: 64 µg/mL
Micrococcus luteus ATCC 4698 (code PP)
  MIC: 0.78 µg/mL
Micrococcus luteus ATCC 9341 (code OO)
  MIC: 0.2 µg/mL
Mycobacterium smegmatis ATCC 114 (code UU)
  MIC: 25 µg/mL
Nocardia Asteroides ATCC9970 (code VV)
  MIC: 1.56 µg/mL
Staphylococcus aureus 1775 (code GG)
  MIC: > 100 µg/mL
Staphylococcus aureus A5177 (code BB)
  MIC: 1.56 µg/mL
Staphylococcus aureus A-5278 (code CC)
  MIC: > 100 µg/mL
Staphylococcus aureus ATCC 6538P (code AA)
  MIC: 0.78 µg/mL
Staphylococcus aureus CMX 553 (code FF)
  MIC: 1.56 µg/mL
Staphylococcus aureus CMX 642A (code DD)
  MIC: 1.56 µg/mL
Staphylococcus aureus NCTC10649M (code EE)
  MIC: 0.78 µg/mL
Staphylococcus epidermidis 3519 (code HH)
  MIC: 1.56 µg/mL
Streptococcus Pneumonia 5649 (code ZZA)
  MIC: 0.25 µg/mL
Streptococcus Pneumonia 5979 (code ZZ)
  MIC: > 64 µg/mL
Streptococcus Pneumonia ATCC6303 (code XX)
  MIC: 0.5 µg/mL
Streptococcus Pneumonia GYR 1171 (code YY)
  MIC: 0.25 µg/mL
Streptococcus agalactiae CMX 508 (code KK)
  MIC: 0.2 µg/mL
Streptococcus bovis A-5169 (code JJ)
  MIC: 0.2 µg/mL
Streptococcus pyogenes 930 (code MM)
  MIC: > 100 µg/mL
Streptococcus pyogenes EES61 (code LL)
  MIC: 0.2 µg/mL
Streptococcus pyogenes PIU 2548 (code NN)
  MIC: 0.2 µg/mL
